Experimental data reported in ChEMBL document CHEMBL1150547, “-Phenoxyphenylacetic acid derived angiotensin II antagonists with low nanomolar AT1/AT2 receptor subtype affinity (Part II)” (Bioorg Med Chem Lett, 1995).

Assays:
[1] = target: T1, Type-2 angiotensin II receptor (Rattus norvegicus, UniProt P35351); assay: Tested for its ability to displace the specific binding ligand [125I]-Sar 1,lle8-AlI from rat midbrain membrane (AT2 receptor); format: tissue-based
T1 sequence (P35351 whole entry): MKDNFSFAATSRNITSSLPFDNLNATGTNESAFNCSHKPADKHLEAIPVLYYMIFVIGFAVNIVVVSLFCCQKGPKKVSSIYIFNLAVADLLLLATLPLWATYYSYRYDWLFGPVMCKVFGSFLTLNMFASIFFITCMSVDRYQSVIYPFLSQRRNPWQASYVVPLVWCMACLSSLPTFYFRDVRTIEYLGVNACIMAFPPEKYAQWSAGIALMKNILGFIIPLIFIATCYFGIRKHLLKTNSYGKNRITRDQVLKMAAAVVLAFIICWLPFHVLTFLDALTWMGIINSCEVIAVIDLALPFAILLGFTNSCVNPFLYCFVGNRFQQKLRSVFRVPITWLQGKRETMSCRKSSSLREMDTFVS

[2] = target: T2, Type-1 angiotensin II receptor (Oryctolagus cuniculus, UniProt P34976); assay: Tested for its ability to displace the specific binding ligand [125I]-Sar 1,lle8-AlI from rabbit aortic membrane (AT1 receptor)
T2 sequence (P34976 whole entry): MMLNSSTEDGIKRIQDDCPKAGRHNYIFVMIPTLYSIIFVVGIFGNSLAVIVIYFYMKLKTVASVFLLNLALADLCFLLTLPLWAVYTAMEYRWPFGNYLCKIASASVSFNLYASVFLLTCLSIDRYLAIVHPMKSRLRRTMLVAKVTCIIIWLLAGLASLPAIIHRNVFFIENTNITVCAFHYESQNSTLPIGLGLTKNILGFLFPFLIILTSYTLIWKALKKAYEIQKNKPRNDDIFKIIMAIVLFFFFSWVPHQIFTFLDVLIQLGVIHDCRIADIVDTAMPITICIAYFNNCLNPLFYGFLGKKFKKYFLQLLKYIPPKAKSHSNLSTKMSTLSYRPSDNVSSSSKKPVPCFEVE

| SMILES | IC50 [1] [nM] | IC50 [2] [nM] |
| --- | --- | --- |
| CCOc1cc(Cn2c(CC)nc3c(C)cc(C)nc32)ccc1OC(C(=O)O)c1ccccc1 (centres undefined) | 1200 | 140 |
| CCc1nc2c(C)cc(C)nc2n1Cc1ccc(OC(C(=O)O)c2ccccc2C)c(Cl)c1 (centres undefined) | 1700 | 3.4 |
| CCc1nc2c(C)cc(C)nc2n1Cc1ccc(OC(C(=O)O)c2ccccc2C)cc1 (centres undefined) | 5200 | 6 |
| CCc1nc2c(C)cc(C)nc2n1Cc1cc(Cl)c(OC(C(=O)O)c2ccccc2)c(OC)c1 (centres undefined) | 7800 | 16 |
| CCCCc1nc2ccccc2n1Cc1ccc(OC(C(=O)O)c2ccccc2)cc1 (centres undefined) | 2000 | 93 |
| CCc1nc2c(C)cc(C)nc2n1Cc1ccc(OC(C(=O)O)c2ccccc2)cc1 (centres undefined) | 2000 | 29 |
| CCc1nc2c(C)cc(C)nc2n1Cc1ccc(OC(C(=O)O)c2ccccc2)c(C)c1 (centres undefined) | 940 | 14 |
| CCCc1cc(Cn2c(CC)nc3c(C)cc(C)nc32)ccc1OC(C(=O)O)c1ccccc1C (centres undefined) | 2400 | 11 |
| CCc1nc2c(C)cc(C)nc2n1Cc1ccc(OC(C(=O)O)c2ccccc2)c(OC)c1 (centres undefined) | 2900 | 170 |
| CCCc1cc(Cn2c(CC)nc3c(C)cc(C)nc32)ccc1OC(C(=O)O)c1ccccc1Cl (centres undefined) | > 1000 | 8 |
| CCc1nc2c(C)cc(C)nc2n1Cc1ccc(OC(C(=O)O)c2ccccc2)c(C(C)C)c1 (centres undefined) | 3300 | 30 |
| CCc1nc2c(C)cc(C)nc2n1Cc1ccc(OC(C(=O)O)c2ccccc2Cl)cc1 (centres undefined) | 15000 | 10 |
| CCCCc1nc2ccc(C)cc2c(=O)n1Cc1ccc(OC(C(=O)O)c2ccccc2)cc1 (centres undefined) | 760 | 260 |
| CCCc1nc2c(C)ccnc2n1Cc1ccc(OC(C(=O)O)c2ccccc2)cc1 (centres undefined) | 3400 | 65 |
| CCCc1cc(Cn2c(CC)nc3c(C)cc(C)nc32)ccc1OC(C(=O)O)c1ccccc1OC (centres undefined) | 1200 | 9.5 |
| CCc1nc2c(C)cc(C)nc2n1Cc1cc(Cl)c(OC(C(=O)O)c2ccccc2)c(Cl)c1 (centres undefined) | 9000 | 21 |
| CCc1nc2c(C)cc(C)nn2c1Cc1ccc(OC(C(=O)O)c2ccccc2)cc1 (centres undefined) | 3000 | 69 |
| CCc1nc2c(C)cc(C)nc2n1Cc1ccc(OC(C(=O)O)c2ccccc2)c(Cc2ccccc2)c1 (centres undefined) | 800 | 95 |

Results, then the molecule that gave them:

| IC50 [1] [nM] | IC50 [2] [nM] | SMILES |
| --- | --- | --- |
| 47 | 11 | CCCc1cc(Cn2c(CC)nc3c(C)cc(C)nc32)ccc1OC(C(=O)O)c1ccccc1 (centres undefined) |
| 760 | 2.2 | C=CCc1cc(Cn2c(CC)nc3c(C)cc(C)nc32)cc(Cl)c1OC(C(=O)O)c1ccccc1 (centres undefined) |
| 300 | 50 | CCc1nc2c(C)cc(C)nc2n1Cc1ccc(OC(C(=O)O)c2ccccc2)c(C(C)(C)C)c1 (centres undefined) |
| 140 | 12 | CCCCc1cc(Cn2c(CC)nc3c(C)cc(C)nc32)ccc1OC(C(=O)O)c1ccccc1 (centres undefined) |
| 720 | 15 | CCc1nc2c(C)cc(C)nc2n1Cc1ccc(OC(C(=O)O)c2ccccc2)c(Cl)c1 (centres undefined) |
| 60 | 120 | CCc1nc2c(C)cc(C)nc2n1Cc1ccc(OC(C(=O)O)c2ccccc2)c(C(=O)c2ccccc2)c1 (centres undefined) |
| 270 | 20 | C=CCc1cc(Cn2c(CC)nc3c(C)cc(C)nc32)ccc1OC(C(=O)O)c1ccccc1 (centres undefined) |
| 610 | 62 | CCc1nc2c(C)cc(C)nc2n1Cc1ccc(OC(C(=O)O)c2ccccc2)c(C(C)=O)c1 (centres undefined) |
| 410 | 12 | CCc1cc(Cn2c(CC)nc3c(C)cc(C)nc32)ccc1OC(C(=O)O)c1ccccc1 (centres undefined) |
